# According to patent US9833520B2, “Labeled, non-peptidic, multivalent integrin antagonist compounds; methods for synthesis and uses thereof” (The Methodist Hospital Research Institute, priority 2011, dated 2017):
# Where “and” joins values, the source holds several entries; their conditions need not be identical. Equal values may be shown once. Entries after “also recorded” stand apart in the source; their conditions may differ.
# Tests used:
# B16F10 cells = test: In vitro cytotoxicity (MTT) assay, B16F10; assay type: cell-based, mouse; settings: B16F10, 100 μg/mL, 24 hr
# Protocol: For cell cytotoxicity assay, the cells were then seeded into 96-well flat-bottomed tissue-culture plates at 1×10^4 cells/well and incubated for 24 hr in humidified atmosphere of 5% (vol./vol.) CO2 at 37° C. in the presence of each compound. The multivalent compound (monomer, dimer, and trimer) sample solutions were diluted with culture medium (1% FBS added) to obtain concentrations in the range of 0.1-100 μg/mL for each compound. The cytotoxic effects of monomer, dimer and trimer compounds were evaluated by adding 100 μL of each sample in 100 μL culture medium to each well. After 24-hrs' incubation, cell viability was evaluated by mitochondrial conversion of 3-(4,5-dimethylthiazol-2-yl)-2,5-diphenyl tetrazolium bromide (MTT assay) (Allison et al., 1985).
# Mouse melanoma B16F10 cells (Caliper.CO,) and human melanoma M21 cells were maintained in RPMI 1640 (Caliper) containing 10% (vol./vol.) fetal bovine serum (Invitrogen, Ontario, Canada), 100 U/mL penicillin G, and 100 μg/mL streptomycin for general cell growing condition. For cell cytotoxicity assay, the cells were then seeded into 96-well flat-bottomed tissue-culture plates at 1×10^4 cells/well and incubated for 24 hr or 72 hr in humidified atmosphere of 5% (vol./vol.) CO2 at 37° C. in the presence of each compound. The multivalent compounds (monomer, dimer, trimer) sample solutions were diluted with culture medium (1% FBS added) to obtain the concentration of each compound in the range of 0.1 to 100 μg/mL. The cytotoxic effects of monomer, dimer and trimer compounds solution were evaluated by adding a mixture of 100 μL of each sample and 100 μL of culture medium to each well. After 24-hr or 72-hr incubation, cell viability was evaluated by mitochondrial conversion of 3-(4,5-dimethylthiazol-2-yl)-2,5-diphenyl tetrazolium bromide (MTT assay).
# HUVECs = test: Anti-angiogenic in vitro assay: endothelial tube formation on Matrigel; assay type: cell-based, human; settings: 10 μg/mL, 6 hr
# Protocol: The impact of IA derivatives on capillary-like tube formation by HUVECs was investigated. In vitro endothelial tube formation was performed as described in the literature (Park et al., 2007). Growth factor reduced Matrigel® (100 μL, BD Bioscience, San Jose, Calif., USA) was added to each well of a 96-well plate and allowed to polymerize for 30 min at 37° C. HUVECs were suspended in medium at the density of 4×10^5 cells per milliliter, and 100 μL of the cell suspension was added to each Matrigel-coated well in the presence of IA monomer, dimer and trimer. Cells were incubated at 37° C. for 6 hr, and then photographed at 20× magnification using a Micromaster® phase contrast microscope (Fisher Scientific, Pittsburgh, Pa., USA). The branch points were counted and averaged.
# B16F10 melanoma tumor = test: In vivo antitumor efficacy in B16F10 melanoma tumor-bearing mice; settings: for tumor volume against control group (PBS = 100%): 30 mg/kg i.p. every 12 hours; for tumor volume against control group (PBS = 100%) / average tumor volume: 14 days; for reduction in tumor mass compared to control: 30 mg/kg, endpoint
# Protocol: All animal procedures were approved by appropriate Animal Care and Use Committee. The therapeutic test for antitumor efficacy of IA multivalent compounds was evaluated using tumor-bearing mice, which were prepared by bilateral subcutaneous injection in the thighs of nu/nu female mice (6 weeks old; 20-25 g). The mouse melanoma cancer cell line B16F10 was obtained from Caliper and tested negative for rodent pathogens. The cells were maintained in vitro as described above. The mice were inoculated with suspensions of 1×10^6 B16F10 cells in 100 μL complete medium (10% FBS added). Three days after subcutaneous inoculation (the tumor diameter was approximately 3-5 mm, the tumor volume was approximately 50 to 100 mm^3), tumor-bearing mice (n=7 per group) were injected intraperitoneally (i.p.) with each IA compound (monomer, dimer, or trimer) in PBS or PBS alone for control group. All compounds were serially diluted with PBS, and were given 2 times per day (every 12 hr) at a dose of 100 μL of 7.5, 15, 30 mg/kg per injection for 14 days. […] This study design was deliberately chosen to highlight the effect of multivalency. The tumor size was calculated as a×b^2/2, where ‘a’ is the largest and ‘b’ the smallest diameter. In addition, the weight of the mice and the tumors were recorded after harvesting.
# A tumor growth model was used to isolate and interpret the effects of pharmacological dose (pharmacophore) and multivalency. This was done using the R software package ‘geepack’ (Højsgaard et al., 2006; Team et al., 2012). The tumor burden (sum of the volumes of left and right tumors) for each animal was first normalized by dividing by the starting volume on the first day of treatment, then taking the logarithm to linearize the data. The pharmacological dose was decoupled from the molecular valency, N, for this model by defining the pharmacophore or pharmacological dose (PD) as PD=N×MD, where MD is the molar dose. The pharmacological excess (compared to monomer) dose (ED) due to multivalency is then: ED=PD-MD=MD×(N−1). The data was fit to a linear model:
# All animal procedures were approved by the appropriate regulatory agencies. The therapeutic test for antitumor efficacy of IA multivalent compounds was evaluated using tumor-bearing mice that were prepared by the subcutaneous injection in the dorsa of nu/nu female mice (6 weeks old; 20-25 g). The mouse melanoma cancer cell line B16F10 was obtained from Caliper, and tested negative for rodent pathogens. The cells were maintained in vitro as described above. Mice were inoculated with a suspension of 1×10^6 B16F10 cells in 100 μL complete medium (10% FBS added). Four days after subcutaneous inoculation (the tumor diameter was approximately […], the tumor volume was approximately 50 to 100 mm^3), tumor-bearing mice (n=7 per group) were inoculated intraperitoneally (i.p.) with each IA compound (Monomer, Dimer, Trimer) in PBS or PBS alone for control group. All compounds were serially diluted with PBS and were given 2 times per day (every 12 hr) so that compounds doses would be 100 μL of 7.5, 15, 30 mg/kg (maximum tolerated dose) for 14 days. The tumor size was calculated as: a×b2/2, where a is the largest and b the smallest diameter.
SMILES,cell viability (B16F10 cells; listed as IA-monomer),number of tube branches (control group 100%) (HUVECs) [%],tumor volume against control group (PBS = 100%) (B16F10 melanoma tumor) [%],average tumor volume (B16F10 melanoma tumor; 30 mg/kg i.p. twice per day),reduction in tumor mass compared to control (B16F10 melanoma tumor) [%],"average tumor volume (B16F10 melanoma tumor; Example 3, dose not stated) [mm^3]",cell viability (B16F10 cells) [%],average tumor volume (B16F10 melanoma tumor; 15 mg/kg i.p. twice per day) [mm^3],"average tumor volume as fraction of PBS-treated control mice (B16F10 melanoma tumor; 15 mg/kg, 14 days after start of treatment)","survival (B16F10 melanoma tumor; 7.5, 15, 30 mg/kg twice per day)",average tumor size smaller than in the IA-dimer group (B16F10 melanoma tumor; compared to IA-dimer group) [fold],average tumor size smaller than in the IA-monomer group (B16F10 melanoma tumor; compared to IA-monomer group) [fold],cell viability (B16F10 cells; listed as IA-dimer),reduction in tumor mass compared to control (B16F10 melanoma tumor; listed as dimer) [%]
"NCCS(=O)(=O)N[C@@H](CNC(=O)c1ccc(OCCNC2=NCCCN2)cc1)C(=O)O [IA, 4-[2-(3,4,5,6-tetrahydropyrimidine-2-ylamino)ethyloxy]benzoyl-2-(S)-aminoethylsulfonyl-amino-β-alanine]",smaller and less significant; also recorded: no significant changes of cell viability,86.6±3.4,59.29,3300 (s.d. 1200) mm^3,36±9,5000,,,,,,,,
O=C(NCCS(=O)(=O)N[C@@H](CNC(=O)c1ccc(OCCNC2=NCCCN2)cc1)C(=O)O)OCCN(CCOC(=O)NCCS(=O)(=O)N[C@@H](CNC(=O)c1ccc(OCCNC2=NCCCN2)cc1)C(=O)O)CCOC(=O)NCCS(=O)(=O)N[C@@H](CNC(=O)c1ccc(OCCNC2=NCCCN2)cc1)C(=O)O [IA trimer],,35.6±1.0,32.05,1800 (s.d. 800) mm^3 and 1800 mm^3,71±7,2000,~80,2000,less than ⅓; also recorded: less than one-third,all of animals survived for at least 2 weeks,1.7,2.3,,
NC(CCCCCC(=O)NCCS(=O)(=O)N[C@@H](CNC(=O)c1ccc(OCCNC2=NCCCN2)cc1)C(=O)O)C(=O)NCCS(=O)(=O)N[C@@H](CNC(=O)c1ccc(OCCNC2=NCCCN2)cc1)C(=O)O (some centres unmarked) [bivalent IA],,68.3±2.6,45.33,2500 (s.d. 1000) mm^3,,3000,,,,,,,smaller and less significant; also recorded: no significant changes of cell viability,49±8
